Experimental data: paper PMC7887271, “Fast acting allosteric phosphofructokinase inhibitors block trypanosome glycolysis and cure acute African trypanosomiasis in mice” (Nature Communications, 2021)
“And” between values parts separate entries of the source, which are not always exact repeats. Equal entries are not always repeated.

Key:
[1] = system: MDCK-MDR1; details: dog
[2] = Mouse hepatocytes intrinsic clearance; assay type: in vitro ADME
Source text: Methods are described in Supplementary Methods 5 and 6. Enzyme assay results are means ± SD in multiple assays. ADME results are averages of n = 2 or 3 measurements in individual assays.

[3] = system: T. b. gambiense; experiment: EC50 against in vitro cultured T. b. gambiense (STMI); assay type: cell-based; details: Trypanosoma brucei
[4] = molecular target: T1, CYP2C19 (Homo sapiens, UniProt P33261); experiment: Inhibition of CYP2C19; assay type: in vitro ADME; details: CYP450 isoform inhibition kit (BD Biosciences), probe CEC
T1 construct: purchased BD Biosciences
Method: A HepG2 cytotoxicity assay was used to determine a cellular selectivity index. HepG2 cells were seeded into 96-well plates in EMEM medium. Compounds were assessed for their effect upon cellular viability (Supplementary Methods 5.1). Inhibition of CYP450 was determined using kits from BD Biosciences (Supplementary Methods 5.2). Metabolic stability was determined using mouse […] tested at a single concentration of 5 µM. Plasma protein binding was determined using mouse and human plasma at a single concentration of 10 µM (Supplementary Methods 5.4). All PK studies in mice were carried out by Pharmidex (Supplementary Methods 6.1).
The compounds were investigated for their inhibitory effect on cytochrome P450 (CYP450) activity using five CYP450 isoforms (with fluorescent substrates in brackets): 3A4 (two substrates, BFC and DBF), 2D6 (AMMC), 2C9 (MFC), 2C19 (CEC) and 1A2 (CEC). Kits from BD Biosciences were used along with the method described by the manufacturer. […] Fluorescence was measured using a SpectraMax M5 plate reader.

[5] = system: T. b. brucei GVR35-Luc2; experiment: T. b. brucei GVR35-Luc2 time-to-kill assay (luciferin); assay type: cell-based; details: for Luminescence (medium-subtracted), Average: average of replicates; for % Cell viability, individual replicates / % Inhibition, individual replicates / Luminescence (medium-subtracted), individual replicates: replicate wells; for Luminescence, Average / Luminescence, individual replicates: Time to kill assay for GVR35 cells
Method: Enzyme activity was measured using an aldolase/TIM linked assay at 25 °C. […] Experiments were carried out in duplicate. Data are presented as mean values ± standard deviation. […] Source data are provided as a Source Data File. b Kill time of CTCB-405 compared with existing HAT drugs in the clinic. […] Over 99% of trypanosomes were killed in under 30 min compared with much slower killing rates for the other drugs. The points on the graph for CTCB-405 were determined from two independent biological replicate experiments with each time point measured twice (using duplicate technical replicates). The ESD for each point on the graph is between 0.7 and 1.4%. For drugs in clinical use each point on the graph is the average of two technical replicates from one experiment (with a maximum difference of 7.8% for any of the points). Source data are provided as a Source Data File.
As predicted from the biology of the BSF that relies wholly on glycolysis for ATP production, inhibition of the pathway results in a very fast TTK. Two experimental methods were used to measure ATP levels as a real-time indicator of viability. For Tb427 parasites, a Cell Titre Glo kit was used and for the TbGVR35 bioluminescent strain, killing was assessed by adding luciferin which requires ATP to produce a luminescent signal (Supplementary Methods 4.3 and 4.4). […] The BSF of T. brucei cannot produce ATP by oxidative phosphorylation and is solely dependent on flux through the glycolytic pathway. The clear correlation between inhibitor dose and reduction in ATP production, as observed in the TTK assays strongly supports the proposed mode of action of the CTCB compounds is by blocking glycolysis. It is a long-established experimental observation that withdrawal of glucose nutrient leads to rapid loss of motility and cell death. It has recently been shown that the BSF of T. brucei can proliferate on high levels of glycerol; however, we have shown that addition of glycerol to the medium has little effect on parasite killing by the CTCB compounds (Supplementary Table 3).
The killing of T. b. brucei GVR35-Luc2 was assessed by adding D-luciferin to live cells resulting in the production of light in the presence of ATP and luciferase activity. Compounds of interest were serially diluted from 16 µM to 0.5 µM in Modified HMI-9 medium and added into sterile white, flat bottom 96-well plate (Greiner Inc.). 32,000 trypanosomes were added to each well. The plates were incubated at 37 °C and 5% CO2. At the end of each incubation, 200 µg/ml of D-luciferin was added to each well and incubated for 10 min. Luminescence was measured using a BMG plate reader and percentage cell viability versus incubation time was determined.

[6] = 0.5 h, mean, suramin, fexinidazole, SCYX-7158 11 µM, CTCB-405 4 µM
[7] = 1 h, mean, suramin, fexinidazole, SCYX-7158 11 µM, CTCB-405 4 µM
[8] = 2 h, mean, suramin, fexinidazole, SCYX-7158 11 µM, CTCB-405 4 µM
[9] = 4 h, mean, suramin, fexinidazole, SCYX-7158 11 µM, CTCB-405 4 µM
[10] = 6 h, mean, suramin, fexinidazole, SCYX-7158 11 µM, CTCB-405 4 µM
[11] = 8 h, mean, suramin, fexinidazole, SCYX-7158 11 µM, CTCB-405 4 µM
[12] = GVR35 TTK, 24 h incubation, average
[13] = GVR35 TTK, 24 h incubation, from average
[14] = GVR35 TTK, 24 h sheet, summary line marked "4"

T1 sequence (P33261 whole entry, canonical isoform): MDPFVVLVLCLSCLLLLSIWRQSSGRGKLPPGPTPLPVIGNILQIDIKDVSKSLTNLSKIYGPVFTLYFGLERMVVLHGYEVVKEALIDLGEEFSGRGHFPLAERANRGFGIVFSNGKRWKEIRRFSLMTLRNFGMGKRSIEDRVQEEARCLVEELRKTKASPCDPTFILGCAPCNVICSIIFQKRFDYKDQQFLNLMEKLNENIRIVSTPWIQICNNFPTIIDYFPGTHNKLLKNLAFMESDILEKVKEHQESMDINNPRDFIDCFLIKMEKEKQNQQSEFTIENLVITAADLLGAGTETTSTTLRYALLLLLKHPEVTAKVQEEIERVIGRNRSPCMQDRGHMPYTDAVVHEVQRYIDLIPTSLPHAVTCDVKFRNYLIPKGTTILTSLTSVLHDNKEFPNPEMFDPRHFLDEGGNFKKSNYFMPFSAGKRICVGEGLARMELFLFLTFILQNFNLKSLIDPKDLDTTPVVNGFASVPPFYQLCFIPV

In the case of `CN(C)CCn1ccc2c(ccn2Cc2ccc(Cl)c(Br)c2)c1=O` [CTCB-470, 1-[(3-Bromo-4-chlorophenyl)methyl]-5-[2-(dimethylamino)ethyl] pyrrolo[3,2-c]pyridin-4-one], the “MDCK-MDR1 A-B” value [1] is reported as 34.9, the “MDCK-MDR1 B-A” value [1] is reported as 28.3 and the “Mouse hepatocytes Clint” value [2] is reported as 3.6 µL min^−1 per 10^6 cells. For the same molecule, the EC50 [3] was 140 nM and the inhibition at 10 µM [4] was 45%.
For `CNCCn1ccc2c(ccn2Cc2ccc(Cl)c(Cl)c2)c1=O` [CTCB-435], the “% Cell viability, single replicates” value ([5]; 0.5 h) was 0.549% and -0.0671%, the “% Inhibition, single replicates” value ([5]; 0.5 h) was 99% and 100% and the “% Cell viability” value ([5]; 0.5 h, average) was 0.247% and 0.241%. The “% Inhibition” value [5, 6] was 100%, the “% Cell viability, single replicates” value ([5]; 1 h) was -0.883% and -0.918% and the “% Inhibition, single replicates” value ([5]; 1 h) was 101%. The “% Inhibition” value [5, 7] was 101%, the “% Cell viability, single replicates” value ([5]; 2 h) was -0.287% and -0.261% and the “% Inhibition, single replicates” value ([5]; 2 h) was 100%. The “% Cell viability” value ([5]; 2 h, average) was -0.274%, the “% Inhibition” value [5, 8] was 100% and the “% Cell viability, single replicates” value ([5]; 4 h) was -0.785% and -0.904%. For the same molecule, the “% Inhibition, single replicates” value ([5]; 4 h) was 101%, the “% Cell viability” value ([5]; 4 h, average) was -0.843% and 0% and -0.844% and the “% Inhibition” value [5, 9] was 101%. The “% Cell viability, single replicates” value ([5]; 6 h) was -0.726% and -0.643%, the “% Inhibition, single replicates” value ([5]; 6 h) was 101% and the “% Cell viability” value ([5]; 6 h, average) was -0.684%. The “% Inhibition” value [5, 10] was 101%, the “% Cell viability, single replicates” value ([5]; 8 h) was -0.436% and -0.367% and the “% Inhibition, single replicates” value ([5]; 8 h) was 100%. For the same molecule, the “% Cell viability” value ([5]; 8 h, average) was -0.401%, the “% Inhibition” value [5, 11] was 100% and the “% Cell viability, Average” value [5, 12] was -0.136%. For the same molecule, the “Luminescence (medium-subtracted), Average” value ([5]; GVR35 TTK, 24 h incubation) was -47.5, the “% Inhibition” value [5, 13] was 100% and the “% Cell viability, individual replicates” value ([5]; GVR35 TTK, 24 h incubation) was -0.139% and -0.134%. The “% Inhibition, individual replicates” value ([5]; GVR35 TTK, 24 h incubation) was 100%, the “Luminescence (medium-subtracted), individual replicates” value ([5]; GVR35 TTK, 24 h incubation) was -66.5 and -28.5 and the “% Cell viability” value [5, 14] was -0.137%. The “Luminescence, Average” value ([5]; 0.5 hour incubation) was 71, the “Luminescence, individual replicates” value ([5]; 0.5 hour incubation) was 100 and 43 and the “Luminescence, Average” value ([5]; 1hour incubation) was 2. The “Luminescence, individual replicates” value ([5]; 1hour incubation) was 3 and 1, the “Luminescence, Average” value ([5]; 2hour incubation) was 50 and the “Luminescence, individual replicates” value ([5]; 2hour incubation) was 49 and 50. The “Luminescence, Average” value ([5]; 4hour incubation) was -42, the “Luminescence, individual replicates” value ([5]; 4hour incubation) was -34 and -51 and the “Luminescence, Average” value ([5]; 6hour incubation) was -65. For the same molecule, the “Luminescence, individual replicates” value ([5]; 6hour incubation) was -78 and -51, the “Luminescence, Average” value ([5]; 8hour incubation) was -1.5 and the “Luminescence, individual replicates” value ([5]; 8hour incubation) was -12 and 9. For the same molecule, the “Luminescence, Average” value ([5]; 24hour incubation) was -48 and the “Luminescence, individual replicates” value ([5]; 24hour incubation) was -67 and -29.
In the case of `CN(C)CCn1ccc2c(ccn2Cc2ccc(Cl)c(Cl)c2)c1=O` [CTCB-405, 1-[(3,4-Dichlorophenyl)methyl]-5-[2-(dimethylamino)ethyl] pyrrolo[3,2-c]pyridin-4-one], the “MDCK-MDR1 A-B” value [1] is reported as 17.6, the “MDCK-MDR1 B-A” value [1] is reported as 17.2 and the “Mouse hepatocytes Clint” value [2] is reported as 3.7 µL min^−1 per 10^6 cells. For the same molecule, the “trypanosomes killed in under 30 min” value ([5]; 4 µM, GVR35 bioluminescent strain) was “Over 99%”, the “% Cell viability, single replicates” value ([5]; 0.5 h) was 0.291% and 2.73% and the “% Inhibition, single replicates” value ([5]; 0.5 h) was 100% and 97%. For the same molecule, the “% Cell viability” value ([5]; 0.5 h, average) was 1.49% and 1.51%, the “% Inhibition” value [5, 6] was 99% and the “% Cell viability, single replicates” value ([5]; 1 h) was -0.108% and -1%. For the same molecule, the “% Inhibition, single replicates” value ([5]; 1 h) was 100% and 101%, the “% Inhibition” value [5, 7] was 101% and the “% Cell viability, single replicates” value ([5]; 2 h) was -0.773% and 0.055%. The “% Inhibition, single replicates” value ([5]; 2 h) was 101% and 100%, the “% Cell viability” value ([5]; 2 h, average) was -0.345% and -0.359% and the “% Inhibition” value [5, 8] was 100%. For the same molecule, the “% Cell viability, single replicates” value ([5]; 4 h) was -0.741% and -0.843%, the “% Inhibition, single replicates” value ([5]; 4 h) was 101% and the “% Cell viability” value ([5]; 4 h, average) was -0.791% and 0% and -0.792%. For the same molecule, the “% Inhibition” value [5, 9] was 101%, the “% Cell viability, single replicates” value ([5]; 6 h) was -0.633% and -0.494% and the “% Inhibition, single replicates” value ([5]; 6 h) was 101% and 100%. For the same molecule, the “% Cell viability” value ([5]; 6 h, average) was -0.563% and -0.564%, the “% Inhibition” value [5, 10] was 101% and the “% Cell viability, single replicates” value ([5]; 8 h) was -0.333% and -0.376%. For the same molecule, the “% Inhibition, single replicates” value ([5]; 8 h) was 100%, the “% Cell viability” value ([5]; 8 h, average) was -0.354% and the “% Inhibition” value [5, 11] was 100%. The “% Cell viability, Average” value [5, 12] was -0.0941%, the “Luminescence (medium-subtracted), Average” value ([5]; GVR35 TTK, 24 h incubation) was -1 and the “% Inhibition” value [5, 13] was 100%. The “% Cell viability, individual replicates” value ([5]; GVR35 TTK, 24 h incubation) was -0.0906% and -0.0976%, the “% Inhibition, individual replicates” value ([5]; GVR35 TTK, 24 h incubation) was 100% and the “Luminescence (medium-subtracted), individual replicates” value ([5]; GVR35 TTK, 24 h incubation) was -8.5 and 6.5. The “% Cell viability” value [5, 14] was -0.0937%, the “Luminescence, Average” value ([5]; 0.5 hour incubation) was 184 and the “Luminescence, individual replicates” value ([5]; 0.5 hour incubation) was 76 and 293. The “Luminescence, Average” value ([5]; 1hour incubation) was 41, the “Luminescence, individual replicates” value ([5]; 1hour incubation) was 96 and -14 and the “Luminescence, Average” value ([5]; 2hour incubation) was 40. For the same molecule, the “Luminescence, individual replicates” value ([5]; 2hour incubation) was -17 and 96, the “Luminescence, Average” value ([5]; 4hour incubation) was -33 and the “Luminescence, individual replicates” value ([5]; 4hour incubation) was -26 and -40. For the same molecule, the “Luminescence, Average” value ([5]; 6hour incubation) was -24, the “Luminescence, individual replicates” value ([5]; 6hour incubation) was -47 and -1 and the “Luminescence, Average” value ([5]; 8hour incubation) was 13. For the same molecule, the “Luminescence, individual replicates” value ([5]; 8hour incubation) was 20 and 6, the “Luminescence, Average” value ([5]; 24hour incubation) was -1 and the “Luminescence, individual replicates” value ([5]; 24hour incubation) was -8.5 and 6.5. For the same molecule, the EC50 [3] was 190 nM and the inhibition at 10 µM [4] was 64%.
